# Results from PubChem BioAssay (NCI).
#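 GI50: concentration for 50% inhibition of growth. TGI marks complete inhibition of growth.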
# Experiments:
# Assay in all cases: NCI anticancer screen, dose series, 384-well format
# HOP-62 NSCLC = test system: HOP-62 NSCLC
# NCI-H460 NSCLC = test system: NCI-H460 NSCLC
# U251 glioblastoma = test system: U251 glioblastoma
# MCF7 breast = test system: MCF7 breast
# SNB-19 CNS = test system: SNB-19 CNS
# DU-145 prostate = test system: DU-145 prostate
# 786-0 renal = test system: 786-0 renal
# HL-60(TB) leukemia = test system: HL-60(TB) leukemia
# M14 melanoma = test system: M14 melanoma
# T-47D breast = test system: T-47D breast
# MDA-MB-468 breast = test system: MDA-MB-468 breast
# HCT-15 colon = test system: HCT-15 colon
# RXF 393 renal = test system: RXF 393 renal
compound,measurement,setting,value
C=CC(=O)N1CCN(CCCn2c(=O)c(-c3c(Cl)c(OC)cc(OC)c3Cl)cc3cnc(NC)nc32)CC1,GI50,HOP-62 NSCLC,3.06 µM
same,TGI,HOP-62 NSCLC,12.1 µM
same,GI50,NCI-H460 NSCLC,2.51 µM
same,TGI,NCI-H460 NSCLC,12.7 µM
same,GI50,U251 glioblastoma,3.72 µM
same,TGI,U251 glioblastoma,16 µM
same,GI50,MCF7 breast,7.95 µM
same,TGI,MCF7 breast,20.7 µM
same,GI50,SNB-19 CNS,5.11 µM
same,TGI,SNB-19 CNS,17.3 µM
same,GI50,DU-145 prostate,4.02 µM
same,TGI,DU-145 prostate,18.1 µM
same,GI50,786-0 renal,2.38 µM
same,TGI,786-0 renal,13.7 µM
same,GI50,HL-60(TB) leukemia,1.55 µM
same,TGI,HL-60(TB) leukemia,4.2 µM
same,GI50,M14 melanoma,2.11 µM
same,TGI,M14 melanoma,16.1 µM
same,GI50,T-47D breast,2.86 µM
same,TGI,T-47D breast,16.1 µM
same,GI50,MDA-MB-468 breast,0.95 µM
same,TGI,MDA-MB-468 breast,2.68 µM
same,GI50,HCT-15 colon,2.37 µM
same,TGI,HCT-15 colon,14.9 µM
same,GI50,RXF 393 renal,0.665 µM
same,TGI,RXF 393 renal,3.03 µM
